Laboratory results taken from ChEMBL document CHEMBL3351832, “Design and synthesis of lactam-thiophene carboxylic acids as potent hepatitis C virus polymerase inhibitors” (Bioorg Med Chem Lett, 2014).

How the values were obtained:
[1] = Inhibition of purified Hepatitis C virus NS5B; set-up: species or system Hepacivirus hominis
Hepatitis C virus [2] = experiment: Antiviral activity against Hepatitis C virus genotype 1b by cell-based replicon assay; assay type: functional, Hepacivirus hominis
[3] = molecular target: T1, Nuclear receptor subfamily 1 group I member 2 (Homo sapiens, UniProt O75469); experiment: Activation of PXR (unknown origin) at 10 uM by reporter gene assay relative to rifampicin; assay type: ADME
T1 sequence (O75469 whole entry): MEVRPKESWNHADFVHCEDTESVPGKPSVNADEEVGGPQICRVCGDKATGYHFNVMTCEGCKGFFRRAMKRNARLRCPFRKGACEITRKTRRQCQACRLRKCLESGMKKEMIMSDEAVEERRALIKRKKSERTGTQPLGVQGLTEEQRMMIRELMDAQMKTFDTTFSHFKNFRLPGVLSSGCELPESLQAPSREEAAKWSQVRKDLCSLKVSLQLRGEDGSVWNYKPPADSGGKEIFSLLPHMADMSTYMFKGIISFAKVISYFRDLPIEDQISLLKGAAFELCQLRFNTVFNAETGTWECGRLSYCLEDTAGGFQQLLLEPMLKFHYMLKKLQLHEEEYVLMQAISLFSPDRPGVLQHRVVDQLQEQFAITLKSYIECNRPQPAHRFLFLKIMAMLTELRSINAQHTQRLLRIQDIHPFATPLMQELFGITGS

Hepatocyte = experiment: Increase in CYP3A4 mRNA expression in human hepatocytes at 10 uM relative to rifampicin; assay type: ADME, cell-based
Cytochrome P450 3A4 = Cytochrome P450 3A4 (Homo sapiens, UniProt P08684); experiment: Increase in CYP3A4-mediated testosterone metabolism in human hepatocytes at 10 uM relative to rifampicin; assay type: ADME, cell-based, Hepatocyte
Cytochrome P450 3A4, sequence (P08684 whole entry): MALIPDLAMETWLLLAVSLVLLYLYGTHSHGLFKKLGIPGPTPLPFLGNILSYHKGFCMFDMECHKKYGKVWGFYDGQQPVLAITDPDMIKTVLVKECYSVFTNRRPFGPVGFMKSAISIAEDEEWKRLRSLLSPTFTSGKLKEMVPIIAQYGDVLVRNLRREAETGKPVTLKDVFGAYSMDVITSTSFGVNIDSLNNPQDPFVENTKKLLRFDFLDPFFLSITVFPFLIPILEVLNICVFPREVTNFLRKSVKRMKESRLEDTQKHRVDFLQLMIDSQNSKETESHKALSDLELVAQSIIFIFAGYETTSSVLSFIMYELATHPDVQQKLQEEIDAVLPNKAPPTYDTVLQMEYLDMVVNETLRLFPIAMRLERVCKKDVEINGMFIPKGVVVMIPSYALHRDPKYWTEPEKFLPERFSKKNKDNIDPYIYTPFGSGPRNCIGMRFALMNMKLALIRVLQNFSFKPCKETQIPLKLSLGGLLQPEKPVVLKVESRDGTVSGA

[4] = AUC in beagle dog at 3 mg/kg, po; assay type: ADME, organism-based, Canis lupus familiaris; set-up: dose 3 mg/kg, route oral; conditions: plasma
[5] = Oral bioavailability in beagle dog at 3 mg/kg; assay type: ADME, organism-based, Canis lupus familiaris; conditions: in vivo
[6] = Clearance in Sprague-Dawley rat at 1 mg/kg, iv; assay type: ADME, organism-based; set-up: dose 1 mg/kg, route intravenous; conditions: in vivo
[7] = Volume of distribution at steady state in beagle dog at 0.3 mg/kg, iv; assay type: ADME, organism-based, Canis lupus familiaris; set-up: dose 0.3 mg/kg, route intravenous; conditions: in vivo, read-out: Vdss
[8] = Half life in beagle dog at 0.3 mg/kg, iv; assay type: ADME, organism-based, Canis lupus familiaris; set-up: dose 0.3 mg/kg, route intravenous; conditions: in vivo
Hepatitis C virus [9] = experiment: Antiviral activity against Hepatitis C virus genotype 1b by cell-based replicon assay in presence of 40 % human serum
Hepatitis C virus [10] = experiment: Antiviral activity against Hepatitis C virus genotype 1a by cell-based replicon assay; conditions: subtype 1a
[11] = Oral bioavailability in Sprague-Dawley rat at 5 mg/kg; assay type: ADME, organism-based; conditions: in vivo
[12] = Clearance in beagle dog at 0.3 mg/kg, iv; assay type: ADME, organism-based, Canis lupus familiaris; set-up: dose 0.3 mg/kg, route intravenous; conditions: in vivo
[13] = AUC in Sprague-Dawley rat at 5 mg/kg, po; assay type: ADME, organism-based; set-up: dose 5 mg/kg, route oral; conditions: plasma
[14] = Half life in Sprague-Dawley rat at 1 mg/kg, iv; assay type: ADME, organism-based; set-up: dose 1 mg/kg, route intravenous; conditions: in vivo
[15] = Volume of distribution at steady state in Sprague-Dawley rat at 1 mg/kg, iv; assay type: ADME, organism-based; set-up: dose 1 mg/kg, route intravenous; conditions: in vivo, read-out: Vdss
[16] = AUC in beagle dog at 0.3 mg/kg, iv; assay type: ADME, organism-based, Canis lupus familiaris; set-up: dose 0.3 mg/kg, route intravenous; conditions: plasma
[17] = AUC in Sprague-Dawley rat at 1 mg/kg, iv; assay type: ADME, organism-based; set-up: dose 1 mg/kg, route intravenous; conditions: plasma

| IC50 [1] | EC50 (Hepatitis C virus [2]) | Activity [3] | Structure (SMILES) | other results |
| --- | --- | --- | --- | --- |
| 1.5 µM | > 33 µM | – | Cc1ccc([C@H]2CC[C@H](C)CC2)n1-c1cc(-c2ccccc2)sc1C(=O)O | – |
| 10.5 µM | > 33 µM | – | Cc1ccc(C2CCCCC2)n1-c1cc(-c2ccccc2)sc1C(=O)O | – |
| 0.74 µM | 11.6 µM | – | C[C@H]1CC[C@H](C2CCCC(=O)N2c2cc(-c3ccccc3)sc2C(=O)O)CC1 (some centres not stated) | – |
| 0.073 µM | 0.33 µM | – | O=C(O)c1sc(-c2ccccc2)cc1N1C(=O)CCCC1C1CCCCC1 (configuration not stated) | – |
| 0.72 µM | 3.7 µM | – | O=C(O)c1sc(-c2ccccc2)cc1N1C(=O)CCCC1C1CCCC1 (configuration not stated) | – |
| > 10 µM | > 33 µM | – | O=C(O)c1sc(-c2ccccc2)cc1N1C(=O)CCCC1C1CCOCC1 (configuration not stated) | – |
| 0.87 µM | 5.8 µM | – | O=C(O)c1sc(-c2ccccc2)cc1N1C(=O)CCCC1c1ccccc1 (configuration not stated) | – |
| 0.18 µM | 0.64 µM | – | O=C(O)c1sc(-c2ccccc2)cc1N1C(=O)CCC1C1CCCCC1 (configuration not stated) | – |
| 0.12 µM | 0.39 µM | – | O=C(O)c1sc(-c2ccccc2)cc1N1C(=O)CC[C@H]1C1CCCCC1 | – |
| > 10 µM | > 33 µM | – | O=C(O)c1sc(-c2ccccc2)cc1N1C(=O)CC[C@@H]1C1CCCCC1 | – |
| 0.01 µM | 0.012 µM | 141% | CC(C)(C)C#Cc1cc(N2C(=O)CCC[C@H]2C2CCCCC2)c(C(=O)O)s1 | – |
| 0.003 µM | 0.017 µM | 87% | CC(C)(C)C#Cc1cc(N2C(=O)COC[C@H]2C2CCCCC2)c(C(=O)O)s1 | Activity (Hepatocyte): 66%; Activity (Cytochrome P450 3A4): 61% |
| 0.002 µM | 0.005 µM | 145% | CC(C)(C)C#Cc1cc(N2C(=O)C(C)(C)OC[C@H]2C2CCCCC2)c(C(=O)O)s1 | – |
| 0.035 µM | 0.083 µM | – | CC(C)(C)C#Cc1cc(N2C(=O)[C@H](CCCO)OC[C@H]2C2CCCCC2)c(C(=O)O)s1 | – |
| 0.003 µM | 0.008 µM | 9% | C[C@@H](O)C[C@H]1OC[C@@H](C2CCCCC2)N(c2cc(C#CC(C)(C)C)sc2C(=O)O)C1=O | AUC [4]: 6.3 µM·h; bioavailability [5]: 43%; clearance [6]: 14 mL/min/kg; Vd [7]: 0.7 L/kg; half-life [8]: 5 h; EC50 (Hepatitis C virus [9]): 0.044 µM; EC50 (Hepatitis C virus [10]): 0.011 µM; bioavailability [11]: 77%; clearance [12]: 7.7 mL/min/kg; AUC [13]: 10.6 µM·h; half-life [14]: 5.2 h; Vd [15]: 3 L/kg; AUC [16]: 1.45 µM·h; AUC [17]: 2.76 µM·h; Activity (Cytochrome P450 3A4): 2% |
| 0.002 µM | 0.03 µM | 4% | C[C@H](O)C[C@H]1OC[C@@H](C2CCCCC2)N(c2cc(C#CC(C)(C)C)sc2C(=O)O)C1=O | – |
| 0.06 µM | 0.27 µM | – | CC(C)N(c1cc(-c2ccccc2)sc1C(=O)O)C(=O)[C@H]1CC[C@H](C)CC1 | – |
| 0.002 µM | 0.007 µM | 3% | CC(C)(C)C#Cc1cc(N2C(=O)[C@@H](CCO)OC[C@H]2C2CCCCC2)c(C(=O)O)s1 (relative stereo) | AUC [4]: 5.68 µM·h; bioavailability [5]: 27%; clearance [6]: 27 mL/min/kg; Vd [7]: 0.3 L/kg; half-life [8]: 3.8 h; bioavailability [11]: 48%; clearance [12]: 5.6 mL/min/kg; AUC [13]: 3.37 µM·h; half-life [14]: 2 h; Vd [15]: 2.1 L/kg; AUC [16]: 2.08 µM·h; AUC [17]: 1.42 µM·h; Activity (Cytochrome P450 3A4): 5% |
| 0.012 µM | 0.066 µM | – | CC(C)(C)C#Cc1cc(N2C(=O)[C@H](CCO)OC[C@H]2C2CCCCC2)c(C(=O)O)s1 (relative stereo) | – |
| 0.002 µM | 0.003 µM | 77% | CC(C)(C)C#Cc1cc(N2C(=O)[C@@](C)(CCO)OC[C@H]2C2CCCCC2)c(C(=O)O)s1 (relative stereo) | – |
| 0.006 µM | 0.02 µM | 29% | CC(C)(C)C#Cc1cc(N2C(=O)[C@](C)(CCO)OC[C@H]2C2CCCCC2)c(C(=O)O)s1 (relative stereo) | – |
| 0.002 µM | 0.014 µM | 5% | CC(C)(C)C#Cc1cc(N2C(=O)[C@@H](CCCO)OC[C@H]2C2CCCCC2)c(C(=O)O)s1 (relative stereo) | AUC [4]: 2.92 µM·h; bioavailability [5]: 12%; clearance [6]: 38 mL/min/kg; Vd [7]: 0.1 L/kg; half-life [8]: 2.4 h; bioavailability [11]: 43%; clearance [12]: 5.4 mL/min/kg; AUC [13]: 2.11 µM·h; half-life [14]: 1.1 h; Vd [15]: 1.2 L/kg; AUC [16]: 2.34 µM·h; AUC [17]: 0.984 µM·h; Activity (Cytochrome P450 3A4): 2% |
| 0.002 µM | 0.011 µM | 34% | CC(C)(C)C#Cc1cc(N2C(=O)[C@@](C)(CCCO)OC[C@H]2C2CCCCC2)c(C(=O)O)s1 (relative stereo) | – |
| 0.004 µM | 0.025 µM | 8% | CC(C)(C)C#Cc1cc(N2C(=O)[C@](C)(CCCO)OC[C@H]2C2CCCCC2)c(C(=O)O)s1 (relative stereo) | – |
